Experiments:
[1] = test system: Pseudomonas aeruginosa UI-18: Wild-type (PA-7); experiment: MIC determination (CLSI), strain PA-7; type: cell-based; details: strain PA-7, unit assumed
Summary of the method: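 Strain tested was P. aeruginosa UI-18, a wild-type isolate labelled PA-7. Minimum inhibitory concentrations followed CLSI dilution methodology for aerobically growing bacteria (M7-A7, M100-S18).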

[2] = test system: Escherichia coli EC-1: VOGEL, mouse virulent; experiment: MIC determination (CLSI), strain EC-1; type: cell-based; details: strain EC-1, unit assumed
Summary of the method: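 The mouse-virulent VOGEL isolate of E. coli, EC-1, served as test organism. Minimum inhibitory concentration was measured by CLSI dilution methodology (M7-A7; M100-S18 standards).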

[3] = generated in the same manner as in Table 4

Row | SMILES | PA-7 (MIC) [1, 3] | EC-1 (MIC) [2, 3] | PA-7 (MIC) [1] | EC-1 (MIC) [2]
1 | Cn1ccnc1-c1cccc(-c2ccn(CCC(C)(C(=O)NO)S(C)(=O)=O)c(=O)c2)c1 (stereo not shown) [Example 172, N-hydroxy-2-methyl-4-{4-[3-(1-methyl-1H-imidazol-2-yl)phenyl]-2-oxopyridin-1(2H)-yl}-2-(methylsulfonyl)butanamide] | > 64 µg/mL | > 64 µg/mL | – | –
2 | COc1ccccc1-c1ccn(CCC(C)(C(=O)NO)S(C)(=O)=O)c(=O)c1 (stereo not shown) [Example 120, N-hydroxy-4-[4-(2-methoxyphenyl)-2-oxopyridin-1(2H)-yl]-2-methyl-2-(methylsulfonyl)butanamide] | 16 µg/mL | 64 µg/mL | – | –
3 | CC(CCn1ccc(-c2ccc(OCCN3CCOCC3)cc2)cc1=O)(C(=O)NO)S(C)(=O)=O (stereo not shown) [Example 94] | 4 µg/mL | 2 µg/mL | – | –
4 | Cc1nc(C)n(-c2ccc(-c3ccn(CC[C@](C)(C(=O)NO)S(C)(=O)=O)c(=O)c3)cc2)n1 [Example 384, (2R)-4-{4-[4-(3,5-dimethyl-1H-1,2,4-triazol-1-yl)phenyl]-2-oxopyridin-1(2H)-yl}-N-hydroxy-2-methyl-2-(methylsulfonyl)butanamide] | – | – | 16 µg/mL | 8 µg/mL
5 | Cc1ccc2ccc(-c3ccn(CCC(C)(C(=O)NO)S(C)(=O)=O)c(=O)c3)cc2n1 (stereo not shown) [Example 305, N-hydroxy-2-methyl-4-[4-(2-methylquinolin-7-yl)-2-oxopyridin-1(2H)-yl]-2-(methylsulfonyl)butanamide] | – | – | > 64 µg/mL | 16 µg/mL
6 | COc1c(F)cc(-c2ccn(CC[C@](C)(C(=O)NO)S(C)(=O)=O)c(=O)c2)cc1F [Example 459] | – | – | 2 µg/mL | 2 µg/mL
7 | Cc1c(-c2ccc(Cl)cc2)ccn(CC[C@](C)(C(=O)NO)S(C)(=O)=O)c1=O [Example 396, (2R)-4-[4-(4-chlorophenyl)-3-methyl-2-oxopyridin-1(2H)-yl]-N-hydroxy-2-methyl-2-(methylsulfonyl)butanamide] | – | – | 0.5 µg/mL | 0.25 µg/mL
8 | COc1ccc(-c2ccn(CC[C@](C)(C(=O)NO)S(C)(=O)=O)c(=O)c2)cn1 [Example 285, (2R)-N-hydroxy-4-(6-methoxy-2′-oxo-3,4′-bipyridin-1′(2′H)-yl)-2-methyl-2-(methylsulfonyl)butanamide] | – | – | 4 µg/mL | 4 µg/mL
9 | CC(CCn1ccc(-c2ccc(OCCCCO)cc2Cl)cc1=O)(C(=O)NO)S(C)(=O)=O (stereo not shown) [Example 239, 4-{4-[2-chloro-4-(4-hydroxybutoxy)phenyl]-2-oxopyridin-1(2H)-yl}-N-hydroxy-2-methyl-2-(methylsulfonyl)butanamide] | – | – | 4 µg/mL | 1 µg/mL
10 | C[C@@](CCn1ccc(-c2ccc(Oc3ccnc4ccccc34)cc2)cc1=O)(C(=O)NO)S(C)(=O)=O [Example 444] | – | – | 2 µg/mL | 0.125 µg/mL
11 | CC(CCn1ccc(-c2ccc(C(F)(F)F)cc2C(F)(F)F)cc1=O)(C(=O)NO)S(C)(=O)=O (stereo not shown) [Example 174, 4-{4-[2,4-bis(trifluoromethyl)phenyl]-2-oxopyridin-1(2H)-yl}-N-hydroxy-2-methyl-2-(methylsulfonyl)butanamide] | > 64 µg/mL | 64 µg/mL | – | –
12 | Cc1c(-c2ccc(C#N)cc2F)ccn(CC[C@](C)(C(=O)NO)S(C)(=O)=O)c1=O [Example 412, (2R)-4-[4-(4-cyano-2-fluorophenyl)-3-methyl-2-oxopyridin-1(2H)-yl]-N-hydroxy-2-methyl-2-(methylsulfonyl)butanamide] | – | – | 4 µg/mL | 8 µg/mL
13 | CCCn1cc(-c2ccn(CCC(C)(C(=O)NO)S(C)(=O)=O)c(=O)c2)cn1 (stereo not shown) [Example 152, N-hydroxy-2-methyl-2-(methylsulfonyl)-4-[2-oxo-4-(1-propyl-1H-pyrazol-4-yl)pyridin-1(2H)-yl]butanamide] | > 64 µg/mL | > 64 µg/mL | – | –
14 | CC(CCn1ccc(-c2ccccc2C(F)(F)F)cc1=O)(C(=O)NO)S(C)(=O)=O (stereo not shown) [Example 183, N-hydroxy-2-methyl-2-(methylsulfonyl)-4-{2-oxo-4-[2-(trifluoromethyl)phenyl]pyridin-1(2H)-yl}butanamide] | 32 µg/mL | 32 µg/mL | – | –
15 | Cc1c(-c2ccc(F)cc2)ccn(CC[C@](C)(C(=O)NO)S(C)(=O)=O)c1=O [Example 395, (2R)-4-[4-(4-fluorophenyl)-3-methyl-2-oxopyridin-1(2H)-yl]-N-hydroxy-2-methyl-2-(methylsulfonyl)butanamide] | – | – | 2 µg/mL | 1 µg/mL
16 | CCOc1ccc(Cl)cc1-c1ccn(CCC(C)(C(=O)NO)S(C)(=O)=O)c(=O)c1 (stereo not shown) [Example 105, 4-[4-(5-chloro-2-ethoxyphenyl)-2-oxopyridin-1(2H)-yl]-N-hydroxy-2-methyl-2-(methylsulfonyl)butanamide] | > 64 µg/mL | > 64 µg/mL | – | –

Row | SMILES | PA-7 (MIC) [1, 3] | EC-1 (MIC) [2, 3] | PA-7 (MIC) [1] | EC-1 (MIC) [2]
17 | CC(CCn1ccc(-c2ccc(OCCCn3cncn3)c(Cl)c2Cl)cc1=O)(C(=O)NO)S(C)(=O)=O (stereo not shown) [Example 292, 4-[4-{2,3-dichloro-4-[3-(1H-1,2,4-triazol-1-yl)propoxy]phenyl}-2-oxopyridin-1(2H)-yl]-N-hydroxy-2-methyl-2-(methylsulfonyl)butanamide] | – | – | 16 µg/mL | 8 µg/mL
18 | C[C@@](CCn1ccc(-c2ccc3cnc(N)cc3c2)cc1=O)(C(=O)NO)S(C)(=O)=O [Example 485] | – | – | 32 µg/mL | 64 µg/mL
19 | C[C@@](CCn1ccc(-c2ccc3c(c2)CCC3=O)cc1=O)(C(=O)NO)S(C)(=O)=O [Example 339, (2R)-N-hydroxy-2-methyl-2-(methylsulfonyl)-4-[2-oxo-4-(1-oxo-2,3-dihydro-1H-inden-5-yl)pyridin-1(2H)-yl]butanamide] | – | – | 4 µg/mL | 4 µg/mL
20 | COc1cc(-c2ccn(CCC(C)(C(=O)NO)S(C)(=O)=O)c(=O)c2)cc(OC)c1OC (stereo not shown) [Example 212, N-hydroxy-2-methyl-2-(methylsulfonyl)-4-[2-oxo-4-(3,4,5-trimethoxyphenyl)pyridin-1(2H)-yl]butanamide] | – | – | > 64 µg/mL | > 64 µg/mL
21 | COc1ccc(-c2ccn(CCC(C)(C(=O)NO)S(C)(=O)=O)c(=O)c2)cc1F (stereo not shown) [Example 180, 4-[4-(3-fluoro-4-methoxyphenyl)-2-oxopyridin-1(2H)-yl]-N-hydroxy-2-methyl-2-(methylsulfonyl)butanamide] | 8 µg/mL | 2 µg/mL | – | –
22 | C[C@@](CCn1ccc(-c2ccc(-c3cccnn3)cc2)cc1=O)(C(=O)NO)S(C)(=O)=O [Example 453, (2R)-N-hydroxy-2-methyl-2-(methylsulfonyl)-4-[2-oxo-4-(4-pyridazin-3-ylphenyl)pyridin-1(2H)-yl]butanamide] | – | – | 8 µg/mL | 4 µg/mL
23 | CCOc1ccc(-c2ccn(CCC(C)(C(=O)NO)S(C)(=O)=O)c(=O)c2)cc1F (stereo not shown) [Example 184, 4-[4-(4-ethoxy-3-fluorophenyl)-2-oxopyridin-1(2H)-yl]-N-hydroxy-2-methyl-2-(methylsulfonyl)butanamide] | – | – | 2 µg/mL | 0.5 µg/mL
24 | C[C@@](CCn1ccc(-c2ccc(OCC3CCN(C(=O)CO)CC3)cc2)cc1=O)(C(=O)NO)S(C)(=O)=O [Example 311, (2R)-4-[4-{4-[(1-glycoloylpiperidin-4-yl)methoxy]phenyl}-2-oxopyridin-1(2H)-yl]-N-hydroxy-2-methyl-2-(methylsulfonyl)butanamide] | – | – | 4 µg/mL | 1 µg/mL
25 | CCOc1ccc(-c2ccn(CC[C@](C)(C(=O)NO)S(C)(=O)=O)c(=O)c2)c(F)c1 [Example 361, (2R)-4-[4-(4-ethoxy-2-fluorophenyl)-2-oxopyridin-1(2H)-yl]-N-hydroxy-2-methyl-2-(methylsulfonyl)butanamide] | – | – | 2 µg/mL | 0.5 µg/mL
26 | CC(CCn1ccc(-c2ccc(OCCCO)cc2Cl)cc1=O)(C(=O)NO)S(C)(=O)=O (stereo not shown) [Example 251, 4-{4-[2-chloro-4-(3-hydroxypropoxy)phenyl]-2-oxopyridin-1(2H)-yl}-N-hydroxy-2-methyl-2-(methylsulfonyl)butanamide] | – | – | 4 µg/mL | 2 µg/mL
27 | Cc1cccc(-c2ccn(CC[C@](C)(C(=O)NO)S(C)(=O)=O)c(=O)c2)c1F [Example 323, (2R)-4-[4-(2-fluoro-3-methylphenyl)-2-oxopyridin-1(2H)-yl]-N-hydroxy-2-methyl-2-(methylsulfonyl)butanamide] | – | – | 0.5 µg/mL | 0.25 µg/mL
28 | Cc1cc(SCC#N)ccc1-c1ccn(CC[C@](C)(C(=O)NO)S(C)(=O)=O)c(=O)c1 [Example 356, (2R)-4-[4-{4-[(cyanomethyl)thio]-2-methylphenyl}-2-oxopyridin-1(2H)-yl]-N-hydroxy-2-methyl-2-(methylsulfonyl)butanamide] | – | – | 4 µg/mL | 16 µg/mL
29 | CC(CCn1ccc(-c2ccoc2)cc1=O)(C(=O)NO)S(C)(=O)=O (stereo not shown) [Example 118, 4-[4-(3-furyl)-2-oxopyridin-1(2H)-yl]-N-hydroxy-2-methyl-2-(methylsulfonyl)butanamide] | 64 µg/mL | > 64 µg/mL | – | –
30 | Cc1cc(-c2ccn(CCC(C)(C(=O)NO)S(C)(=O)=O)c(=O)c2)ccc1F (stereo not shown) [Example 193, 4-[4-(4-fluoro-3-methylphenyl)-2-oxopyridin-1(2H)-yl]-N-hydroxy-2-methyl-2-(methylsulfonyl)butanamide] | – | – | 2 µg/mL | 2 µg/mL
31 | C[C@@](CCn1ccc(-c2ccc(-c3cnsc3)cc2)cc1=O)(C(=O)NO)S(C)(=O)=O [Example 380, (2R)-N-hydroxy-4-[4-(4-isothiazol-4-ylphenyl)-2-oxopyridin-1(2H)-yl]-2-methyl-2-(methylsulfonyl)butanamide] | – | – | 1 µg/mL | 0.5 µg/mL
32 | C[C@@](CCn1ccc(-c2ccc(-c3cnoc3)cc2)cc1=O)(C(=O)NO)S(C)(=O)=O [Example 454, (2R)-N-hydroxy-4-[4-(4-isoxazol-4-ylphenyl)-2-oxopyridin-1(2H)-yl]-2-methyl-2-(methylsulfonyl)butanamide] | – | – | 4 µg/mL | 2 µg/mL

Source: US8846933B2, “N-link hydroxamic acid derivatives useful as antibacterial agents” (Pfizer Inc., priority 2009, dated 2014)
